Reference: patent US10696615B2, “Prenylated hydroxystilbenes” (The University of Sydney, priority 2011, dated 2020)

What was measured:
Assay type in all cases: cell-based, human
SNB-19 = assay: NCI in vitro cancer screen, CNS Cancer; conditions: SNB-19; for GI50 / CC50: Homo sapiens; for CC50: read-out: LC50 (the source's name)
UACC-257 = assay: NCI in vitro cancer screen, Melanoma; conditions: UACC-257; for GI50 / CC50: Homo sapiens; for CC50: read-out: LC50 (the source's name)
ACHN = assay: NCI in vitro cancer screen, Renal Cancer; conditions: for GI50 / CC50: Homo sapiens; for CC50: read-out: LC50 (the source's name)
M14 = assay: NCI in vitro cancer screen, Melanoma; conditions: M14; for GI50 / CC50: Homo sapiens; for CC50: read-out: LC50 (the source's name)
MCF7 = assay: NCI in vitro cancer screen, Breast Cancer; conditions: MCF7; for GI50 / CC50: Homo sapiens; for CC50: read-out: LC50 (the source's name)
U251 = assay: NCI in vitro cancer screen, CNS Cancer; conditions: U251; for GI50 / CC50: Homo sapiens, U-251; for CC50: read-out: LC50 (the source's name)
SR = assay: NCI in vitro cancer screen, Leukemia
HCT-15 = assay: NCI in vitro cancer screen, Colon Cancer; conditions: HCT-15; for GI50 / CC50: Homo sapiens; for CC50: read-out: LC50 (the source's name)
ADR-RES (NCI/ADR-RES) = assay: NCI in vitro cancer screen, Ovarian Cancer; conditions: for TGI: ADR-RES; for GI50 / CC50: Homo sapiens, NCI/ADR-RES; for CC50: read-out: LC50 (the source's name)
HCT-116 = assay: NCI in vitro cancer screen, Colon Cancer; conditions: HCT-116
MALME-3M = assay: NCI in vitro cancer screen, Melanoma; conditions: for GI50 / CC50: Homo sapiens, Malme-3M; for CC50: read-out: LC50 (the source's name); for TGI: MALME-3M
EKVX = assay: NCI in vitro cancer screen, Non-Small Cell Lung Cancer; conditions: for GI50 / CC50: Homo sapiens; for CC50: read-out: LC50 (the source's name)
SK-MEL-2 = assay: NCI in vitro cancer screen, Melanoma; conditions: SK-MEL-2
DU-145 = assay: NCI in vitro cancer screen, Prostate Cancer; conditions: DU-145; for GI50 / CC50: Homo sapiens; for CC50: read-out: LC50 (the source's name)
HCC-2998 = assay: NCI in vitro cancer screen, Colon Cancer; conditions: HCC-2998; for GI50 / CC50: Homo sapiens; for CC50: read-out: LC50 (the source's name)
COLO 205 = assay: NCI in vitro cancer screen, Colon Cancer; conditions: COLO 205; for GI50 / CC50: Homo sapiens; for CC50: read-out: LC50 (the source's name)
CAKI-1 = assay: NCI in vitro cancer screen, Renal Cancer; conditions: CAKI-1; for GI50 / CC50: Homo sapiens; for CC50: read-out: LC50 (the source's name)
NCI-H460 = assay: NCI in vitro cancer screen, Non-Small Cell Lung Cancer; conditions: NCI-H460; for GI50 / CC50: Homo sapiens; for CC50: read-out: LC50 (the source's name)
NCI-H322M = assay: as above
NCI-H23 = assay: as above; conditions: NCI-H23
UO-31 = assay: NCI in vitro cancer screen, Renal Cancer; conditions: UO-31; for GI50 / CC50: Homo sapiens; for CC50: read-out: LC50 (the source's name)
MDA-MB-468 = assay: NCI in vitro cancer screen, Breast Cancer; conditions: MDA-MB-468; for GI50 / CC50: Homo sapiens; for CC50: read-out: LC50 (the source's name)
CCRF-CEM = assay: NCI in vitro cancer screen, Leukemia; conditions: for GI50 / CC50: Homo sapiens; for CC50: read-out: LC50 (the source's name)
SK-MEL-28 = assay: NCI in vitro cancer screen, Melanoma; conditions: SK-MEL-28
[1] = system: MDA-MB-231 (MDA-MB-231/ATCC); assay: NCI in vitro cancer screen, Breast Cancer; conditions: MDA-MB-231; for GI50 / CC50: Homo sapiens; for CC50: read-out: LC50 (the source's name)
HT29 = assay: NCI in vitro cancer screen, Colon Cancer; conditions: HT29; for GI50 / CC50: Homo sapiens, HT-29; for CC50: read-out: LC50 (the source's name)
OVCAR-4 = assay: NCI in vitro cancer screen, Ovarian Cancer; conditions: OVCAR-4; for GI50 / CC50: Homo sapiens; for CC50: read-out: LC50 (the source's name)
RPMI-8226 = assay: NCI in vitro cancer screen, Leukemia; conditions: RPMI-8226; for GI50 / CC50: Homo sapiens; for CC50: read-out: LC50 (the source's name)

Structure (SMILES): CC(C)=CCOc1cc(O)cc(/C=C/c2ccc(O)c(O)c2)c1 [USYDS4, (E)-3-(3-methyl-2-butenyloxy)-3′,4′,5-trihydroxystilbene]
- GI50 (SNB-19): 10.5 µM
- CC50 (SNB-19): 63.8 µM
- TGI (SNB-19): 25.8 µM
- GI50 (UACC-257): 5.44 µM
- CC50 (UACC-257): 48.6 µM
- TGI (UACC-257): 19.4 µM
- TGI (ACHN): >100 µM
- GI50 (ACHN): 4.57 µM
- CC50 (ACHN): > 100 µM
- GI50 (M14): 0.91 µM
- CC50 (M14): 46.3 µM
- TGI (M14): 15.4 µM
- GI50 (MCF7): 2.57 µM
- CC50 (MCF7): 51.1 µM
- TGI (MCF7): 18.2 µM
- GI50 (U251): 3.67 µM
- CC50 (U251): 45.5 µM
- TGI (U251): 15.6 µM
- TGI (SR): >100 µM
- GI50 (SR; Homo sapiens): 0.95 µM
- CC50 (SR; Homo sapiens, read-out: LC50 (the source's name)): > 100 µM
- TGI (HCT-15): 34.9 µM
- GI50 (HCT-15): 1.77 µM
- CC50 (HCT-15): > 100 µM
- TGI (ADR-RES (NCI/ADR-RES)): 48.3 µM
- GI50 (ADR-RES (NCI/ADR-RES)): 1.11 µM
- CC50 (ADR-RES (NCI/ADR-RES)): > 100 µM
- TGI (HCT-116): 16.0 µM
- GI50 (HCT-116; Homo sapiens): 4.55 µM
- LC50 (concentration killing 50% of cells) (HCT-116; Homo sapiens): 40.6 µM
- GI50 (MALME-3M): 7.25 µM
- CC50 (MALME-3M): > 100 µM
- TGI (MALME-3M): 30.6 µM
- TGI (EKVX): 59.6 µM
- GI50 (EKVX): 9.55 µM
- CC50 (EKVX): > 100 µM
- GI50 (SK-MEL-2; Homo sapiens): 2.18 µM
- LC50 (SK-MEL-2; Homo sapiens): 31 µM
- TGI (SK-MEL-2): 6.57 µM
- TGI (DU-145): 44.6 µM
- GI50 (DU-145): 6.37 µM
- CC50 (DU-145): > 100 µM
- TGI (HCC-2998): 19.0 µM
- GI50 (HCC-2998): 5.16 µM
- CC50 (HCC-2998): 53.4 µM
- TGI (COLO 205): 23.0 µM
- GI50 (COLO 205): 9.72 µM
- CC50 (COLO 205): 53.5 µM
- TGI (CAKI-1): >100 µM
- GI50 (CAKI-1): 5.25 µM
- CC50 (CAKI-1): > 100 µM
- GI50 (NCI-H460): 3.65 µM
- CC50 (NCI-H460): > 100 µM
- TGI (NCI-H460): 20.3 µM
- TGI (NCI-H322M): 54.7 µM
- GI50 (NCI-H322M; Homo sapiens): 12.8 µM
- LC50 (50% lethal concentration) (NCI-H322M; Homo sapiens): > 100 µM
- GI50 (NCI-H23; Homo sapiens): 3.42 µM
- LC50 (NCI-H23; Homo sapiens): 81.9 µM
- TGI (NCI-H23): 20.8 µM
- GI50 (UO-31): 3.31 µM
- CC50 (UO-31): 66.4 µM
- TGI (UO-31): 20.7 µM
- GI50 (MDA-MB-468): 2.53 µM
- CC50 (MDA-MB-468): 55.1 µM
- TGI (MDA-MB-468): 9.51 µM
- TGI (CCRF-CEM): >100 µM
- GI50 (CCRF-CEM): 3.5 µM
- CC50 (CCRF-CEM): > 100 µM
- GI50 (SK-MEL-28; Homo sapiens): 9.18 µM
- LC50 (SK-MEL-28; Homo sapiens): 77.9 µM
- TGI (SK-MEL-28): 27.6 µM
- GI50 [1]: 1.04 µM
- CC50 [1]: > 100 µM
- TGI [1]: 18.4 µM
- TGI (HT29): 32.5 µM
- GI50 (HT29): 16.3 µM
- CC50 (HT29): 64.7 µM
- GI50 (OVCAR-4): 3.98 µM
- CC50 (OVCAR-4): > 100 µM
- TGI (OVCAR-4): 50.4 µM
- GI50 (RPMI-8226): 2.35 µM
- CC50 (RPMI-8226): > 100 µM
- TGI (RPMI-8226): 25.4 µM

Structure (SMILES): CC(C)=CCc1c(O)cc(/C=C/c2ccc(O)cc2)c(CC=C(C)C)c1O [USYDS6, (E)-2,4-di(3-methyl-2-buten-1-yl)-3,4′,5-trihydroxystilbene]
- GI50 (SNB-19): 6.38 µM
- CC50 (SNB-19): 52.7 µM
- TGI (SNB-19): 20.6 µM
- GI50 (UACC-257): 3.49 µM
- CC50 (UACC-257): 39.8 µM
- TGI (UACC-257): 14.4 µM
- TGI (ACHN): 14.6 µM
- GI50 (ACHN): 3.94 µM
- CC50 (ACHN): 50.4 µM
- GI50 (M14): 2.82 µM
- CC50 (M14): 33.4 µM
- TGI (M14): 8.46 µM
- GI50 (MCF7): 4.02 µM
- CC50 (MCF7): 60.5 µM
- TGI (MCF7): 18.0 µM
- GI50 (U251): 2.33 µM
- CC50 (U251): 16.7 µM
- TGI (U251): 5.31 µM
- TGI (HCT-15): 6.26 µM
- GI50 (HCT-15): 2.13 µM
- CC50 (HCT-15): 48.2 µM
- TGI (ADR-RES (NCI/ADR-RES)): 15.2 µM
- GI50 (ADR-RES (NCI/ADR-RES)): 3.46 µM
- CC50 (ADR-RES (NCI/ADR-RES)): 51.2 µM
- TGI (HCT-116): 3.78 µM
- GI50 (HCT-116; Homo sapiens): 1.89 µM
- GI50 (MALME-3M): 2.8 µM
- CC50 (MALME-3M): 37.1 µM
- TGI (MALME-3M): 8.56 µM
- TGI (EKVX): 21.4 µM
- GI50 (EKVX): 7.19 µM
- CC50 (EKVX): 54.4 µM
- GI50 (SK-MEL-2; Homo sapiens): 13.1 µM
- TGI (SK-MEL-2): 33.6 µM
- TGI (DU-145): 12.9 µM
- GI50 (DU-145): 3.47 µM
- CC50 (DU-145): 40.1 µM
- TGI (HCC-2998): 8.78 µM
- GI50 (HCC-2998): 2.81 µM
- CC50 (HCC-2998): 32.2 µM
- TGI (COLO 205): 30.2 µM
- GI50 (COLO 205): 16 µM
- CC50 (COLO 205): 57.2 µM
- TGI (CAKI-1): 22.6 µM
- GI50 (CAKI-1): 8.37 µM
- CC50 (CAKI-1): 55.7 µM
- GI50 (NCI-H460): 1.89 µM
- CC50 (NCI-H460): 8.06 µM
- TGI (NCI-H460): 3.90 µM
- TGI (NCI-H322M): 25.5 µM
- GI50 (NCI-H322M; Homo sapiens): 1.16 µM
- GI50 (NCI-H23; Homo sapiens): 3.38 µM
- TGI (NCI-H23): 15.7 µM
- GI50 (UO-31): 2.51 µM
- CC50 (UO-31): 33.5 µM
- TGI (UO-31): 7.50 µM
- GI50 (MDA-MB-468): 2.3 µM
- CC50 (MDA-MB-468): 26 µM
- TGI (MDA-MB-468): 6.39 µM
- TGI (CCRF-CEM): 9.17 µM
- GI50 (CCRF-CEM): 2.96 µM
- CC50 (CCRF-CEM): 82.1 µM
- GI50 (SK-MEL-28; Homo sapiens): 11.2 µM
- TGI (SK-MEL-28): 24.0 µM
- GI50 [1]: 1.72 µM
- CC50 [1]: 17.2 µM
- TGI [1]: 4.54 µM
- TGI (HT29): 17.6 µM
- GI50 (HT29): 5.44 µM
- CC50 (HT29): 48.3 µM
- GI50 (OVCAR-4): 4.4 µM
- CC50 (OVCAR-4): 43.5 µM
- TGI (OVCAR-4): 16.1 µM
- GI50 (RPMI-8226): 2.34 µM
- CC50 (RPMI-8226): 62 µM
- TGI (RPMI-8226): 5.61 µM
